Results taken from patent US8932597B2 (priority 2008, dated 2015).

test system: HuM2e antibody 23K12; assay type: binding, human

Point of comparison: “298 (SLCTEVGSCLCEC; epitope peptide) [compound 298]”, “Signal (peptides that bind to 23K21 and 8I10)” value 1967. Against it:
- 149 (CTEVETPIRNEWGSRSCLTEVETPIRNEWGSRC; epitope peptide) [compound 149] — lower, 1348
- 282 (CSCLCEVGMSCLCEC; epitope peptide) [compound 282] — higher, 2705
- 295 (MSLCTEVGMSCLTEV; epitope peptide) [compound 295] — higher, 2026
- 305 (CSCLCEVGMSLLTEC; epitope peptide) [compound 305] — lower, 1925
- 306 (CSLLTECGMSLLTCV; epitope peptide) [compound 306] — lower, 1918
- 307 (SLCTEVGCLCTCV; epitope peptide) [compound 307] — lower, 1907
- 308 (MSLCTEVGMCLCTCV; epitope peptide) [compound 308] — lower, 1902
- 310 (MSCLCECGMSLLTEC; epitope peptide) [compound 310] — lower, 1887
- 315 (MCLCTCVGCSLLTEC; epitope peptide) [compound 315] — lower, 1823
- 319 (SLLTECGSLLTCV; epitope peptide) [compound 319] — lower, 1800
- 322 (SKLTEVETPIRNEWGCRCNDSSD; epitope peptide) [compound 322] — lower, 1784
- 323 (SLCTEVGSLLTCV; epitope peptide) [compound 323] — lower, 1781
- 325 (SLLTECGSLLTEV; epitope peptide) [compound 325] — lower, 1770
- 331 (MSLLTECGMSLLTCV; epitope peptide) [compound 331] — lower, 1690
- 332 (SALTEVETPIRNEWGCRCNDSSD; epitope peptide) [compound 332] — lower, 1689
- 333 (SLLTCVGSLLTEC; epitope peptide) [compound 333] — lower, 1683
- 335 (CSCLCEVGCSLLTEC; epitope peptide) [compound 335] — lower, 1677
- 340 (MSCLCECGCSLLTEC; epitope peptide) [compound 340] — lower, 1652
- 344 (SMLTEVETPIRNEWGCRCNDSSD; epitope peptide) [compound 344] — lower, 1622
- 348 (SLLTECGCSLLTEV; epitope peptide) [compound 348] — lower, 1597
- 355 (SCLCECGCSLLTEV; epitope peptide) [compound 355] — lower, 1555
- 361 (SCLCECGCSLLTEC; epitope peptide) [compound 361] — lower, 1520
- 362 (CSLLTECGMCLLTEV; epitope peptide) [compound 362] — lower, 1517
- 367 (SLCTEVGSLLTEC; epitope peptide) [compound 367] — lower, 1495
- 369 (SLLTEAETPIRNEWGCRCNDSSD; epitope peptide) [compound 369] — lower, 1481
- 374 (SLLTECGCSLLTEC; epitope peptide) [compound 374] — lower, 1451
- 376 (CSLLTECGMSLLTEC; epitope peptide) [compound 376] — lower, 1445
- 378 (SLLTECGSLLTEC; epitope peptide) [compound 378] — lower, 1426
- 382 (CSLLTECGSLLTEV; epitope peptide) [compound 382] — lower, 1393
- 391 (SNLTEVETPIRNEWGCRCNDSSD; epitope peptide) [compound 391] — lower, 1345
- 455 (CLCTCVGSLLTEC; epitope peptide) [compound 455] — lower, 1303
- 458 (CSLLTECGSCLTEV; epitope peptide) [compound 458] — lower, 1278
- 462 (SLLTECGCLLTEV; epitope peptide) [compound 462] — lower, 1259
- 463 (CSLLTECGSLLTCV; epitope peptide) [compound 463] — lower, 1258

test system: anti-M2 human monoclonal antibody Z3G1; assay type: binding

Point of comparison: “1591 (SLLYEVETPIRNEWGCRCNDSSD; epitope peptide) [compound 1591]”, “Signal (peptides that show specific binding to Z3G1)” value 2181. Against it:
- 1573 (QLLTEVETPIRNEWGCRCNDSSD; epitope peptide) [compound 1573] — lower, 1627
- 1574 (RLLTEVETPIRNEWGCRCNDSSD; epitope peptide) [compound 1574] — lower, 1338
- 1575 (WLLTEVETPIRNEWGCRCNDSSD; epitope peptide) [compound 1575] — lower, 2180
- 1576 (YLLTEVETPIRNEWGCRCNDSSD; epitope peptide) [compound 1576] — lower, 1882
- 1577 (SLDTEVETPIRNEWGCRCNDSSD; epitope peptide) [compound 1577] — lower, 1505
- 1578 (SLLAEVETPIRNEWGCRCNDSSD; epitope peptide) [compound 1578] — higher, 2356
- 1579 (SLLDEVETPIRNEWGCRCNDSSD; epitope peptide) [compound 1579] — higher, 2276
- 1580 (SLLEEVETPIRNEWGCRCNDSSD; epitope peptide) [compound 1580] — higher, 2420
- 1581 (SLLFEVETPIRNEWGCRCNDSSD; epitope peptide) [compound 1581] — lower, 2137
- 1582 (SLLGEVETPIRNEWGCRCNDSSD; epitope peptide) [compound 1582] — higher, 2301
- 1583 (SLLHEVETPIRNEWGCRCNDSSD; epitope peptide) [compound 1583] — higher, 2462
- 1584 (SLLIEVETPIRNEWGCRCNDSSD; epitope peptide) [compound 1584] — lower, 1899
- 1585 (SLLKEVETPIRNEWGCRCNDSSD; epitope peptide) [compound 1585] — higher, 2611
- 1586 (SLLLEVETPIRNEWGCRCNDSSD; epitope peptide) [compound 1586] — higher, 2344
- 1587 (SLLNEVETPIRNEWGCRCNDSSD; epitope peptide) [compound 1587] — higher, 2425
- 1588 (SLLREVETPIRNEWGCRCNDSSD; epitope peptide) [compound 1588] — higher, 2286
- 1589 (SLLVEVETPIRNEWGCRCNDSSD; epitope peptide) [compound 1589] — lower, 1932
- 1590 (SLLWEVETPIRNEWGCRCNDSSD; epitope peptide) [compound 1590] — higher, 2221

“CSLLTEVGSLLTEV (epitope peptide) [SEQ ID NO: 283]” was tested, and the “Binding to Z3G1 (in words)” value was “recognized”.
For “MSLLTEVETPIRNEWGCRCN (epitope peptide) [SEQ ID NO: 1149]”, the “Binding to Z3G1 (in words)” value was “very best specific binder”.
